Results reported in ChEMBL document CHEMBL4229531, “Synthesis and evaluation of 1,2,3,4-tetrahydro-1-acridone analogues as potential dual inhibitors for amyloid-beta and tau aggregation” (Bioorg Med Chem, 2018).
Activity calls are given as the source filed them. The rule behind the calls is not given here.

Assays:
[1] = target: T1, Amyloid-beta precursor protein (Homo sapiens, UniProt P05067); assay: Inhibition of self-induced amyloid beta (1 to 42) (unknown origin) aggregation at 20 uM after 72 hrs by thioflavin T assay relative to control
[2] = Permeability of the compound at 100 ug/ml after 10 hrs by artificial membrane permeability assay; assay type: ADME; details: PAMPA; read-out: permeability
Homo sapiens [3] = species on record: Homo sapiens; assay: Inhibition of recombinant full length tau 0N4R (unknown origin) aggregation expressed in Escherichia coli at 20 uM after 72 hrs by thioflavin S assay relative to control
[4] = tested on: Microtubule-associated protein tau (Mus musculus), P10637 [P243L]; assay: Inhibition of congo red-induced EGFP-tagged Tau P301L mutant (unknown origin) aggregation expressed in HEK293T cells at 0.5 uM pretreated for 30 mins followed by congo red addition and measured after 24 hrs by DAPI staining-based fluorescence assay; assay type: cell-based; details: Homo sapiens
[5] = target: T1, Amyloid-beta precursor protein; assay: Inhibition of self-induced amyloid beta (1 to 42) (unknown origin) fibril formation at 20 uM after 24 hrs by uranyl acetate staining-based transmission electron microscopic method
[6] = target: T1, Amyloid-beta precursor protein; assay: Inhibition of amyloid beta (1 to 42) (unknown origin) beta-sheet formation at 20 uM after 24 hrs by CD spectroscopic method
[7] = target: T1, Amyloid-beta precursor protein; assay: Binding affinity to amyloid beta (1 to 42) (unknown origin) by surface plasmon resonance assay
Homo sapiens [8] = species on record: Homo sapiens; assay: Inhibition of fibril formation of recombinant full length tau 0N4R (unknown origin) expressed in Escherichia coli at 20 uM after 24 hrs by uranyl acetate staining-based transmission electron microscopic method
[9] = Binding affinity to recombinant full length tau 0N4R (unknown origin) expressed in Escherichia coli by surface plasmon resonance assay; set-up: species or system Homo sapiens
HEK-293T = assay: Effect on proliferation of HEK293T cells transfected with EGFP-tagged Tau P301L mutant at 1 uM; assay type: cell-based; details: human
[10] = tested on: Microtubule-associated protein tau (Mus musculus), P10637 [P243L]; assay: Inhibition of congo red-induced EGFP-tagged Tau P301L mutant (unknown origin) aggregation expressed in HEK293T cells at 1 uM pretreated for 30 mins followed by congo red addition and measured after 24 hrs by DAPI staining-based fluorescence assay; assay type: cell-based; details: Homo sapiens

T1 sequence (P05067 whole entry): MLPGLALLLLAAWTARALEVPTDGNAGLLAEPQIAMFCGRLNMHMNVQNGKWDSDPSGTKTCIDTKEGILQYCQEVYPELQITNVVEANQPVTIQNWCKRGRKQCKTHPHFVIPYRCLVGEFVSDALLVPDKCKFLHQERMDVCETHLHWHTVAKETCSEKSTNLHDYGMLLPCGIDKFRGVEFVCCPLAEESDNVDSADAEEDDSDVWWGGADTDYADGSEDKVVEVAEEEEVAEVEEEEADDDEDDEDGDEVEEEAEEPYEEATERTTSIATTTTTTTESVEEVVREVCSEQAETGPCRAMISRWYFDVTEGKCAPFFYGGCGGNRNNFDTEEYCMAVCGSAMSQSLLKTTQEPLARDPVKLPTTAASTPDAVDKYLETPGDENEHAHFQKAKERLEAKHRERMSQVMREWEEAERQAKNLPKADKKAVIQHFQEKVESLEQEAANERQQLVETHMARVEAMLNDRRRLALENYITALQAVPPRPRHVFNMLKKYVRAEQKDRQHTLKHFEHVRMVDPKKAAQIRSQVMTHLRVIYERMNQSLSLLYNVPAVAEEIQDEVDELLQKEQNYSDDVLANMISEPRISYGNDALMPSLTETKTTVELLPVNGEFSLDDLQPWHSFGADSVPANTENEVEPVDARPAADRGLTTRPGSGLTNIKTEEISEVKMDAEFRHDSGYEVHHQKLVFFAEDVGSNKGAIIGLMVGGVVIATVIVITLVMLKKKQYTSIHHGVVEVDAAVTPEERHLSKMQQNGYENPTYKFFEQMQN
Chain of Microtubule-associated protein tau (Mus musculus), P10637 [P243L] (P10637 whole entry P243L): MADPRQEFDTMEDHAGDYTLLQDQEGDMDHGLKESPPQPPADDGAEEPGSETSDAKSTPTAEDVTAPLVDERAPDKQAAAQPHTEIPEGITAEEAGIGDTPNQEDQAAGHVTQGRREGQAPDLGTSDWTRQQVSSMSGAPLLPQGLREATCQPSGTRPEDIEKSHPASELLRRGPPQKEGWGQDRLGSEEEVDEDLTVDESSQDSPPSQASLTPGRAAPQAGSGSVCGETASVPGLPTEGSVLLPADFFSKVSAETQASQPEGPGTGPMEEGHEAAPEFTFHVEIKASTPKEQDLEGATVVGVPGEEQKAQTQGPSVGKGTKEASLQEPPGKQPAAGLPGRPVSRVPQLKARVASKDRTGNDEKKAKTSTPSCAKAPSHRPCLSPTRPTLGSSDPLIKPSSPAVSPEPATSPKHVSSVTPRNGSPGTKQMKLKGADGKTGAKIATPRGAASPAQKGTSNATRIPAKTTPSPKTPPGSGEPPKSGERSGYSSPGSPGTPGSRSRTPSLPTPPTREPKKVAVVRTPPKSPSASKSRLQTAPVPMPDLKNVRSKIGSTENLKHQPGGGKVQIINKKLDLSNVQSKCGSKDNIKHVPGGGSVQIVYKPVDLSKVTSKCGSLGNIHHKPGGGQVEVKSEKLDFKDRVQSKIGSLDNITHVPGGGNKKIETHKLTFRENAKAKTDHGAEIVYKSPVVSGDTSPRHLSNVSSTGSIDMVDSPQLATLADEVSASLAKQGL

Row | Compound | inhibition [1] [%] | Papp at 10 h, 100 ug/ml [2] [×10⁻⁶ cm/s] | inhibition (Homo sapiens [3]) [%] | further results
1 | Cc1c2c(nc3ccccc13)CC/C(=C\c1ccccc1)C2=O | 16.6 | 3.1 | 15.7 | –
2 | CN(C)c1ccc2c(c1)Sc1cc(N(C)C)ccc1N2 | – | – | – | inhibition [4]: 74.4%
3 | O=C1/C(=C/c2ccc([N+](=O)[O-])cc2)CCc2nc3ccccc3cc21 | 2.7 | 3.2 | 6.3 | –
4 | C[n+]1c2c(c(N)c3ccccc31)C(=O)/C(=C/c1ccccc1)CC2.[I-] | 84.7 | 2.4 | 71.2 | –
5 | C[n+]1c2c(c(N)c3ccccc31)C(=O)/C(=C\c1cccs1)CC2.[I-] | 94.9 | 1.7 | 31.6 | –
6 | CN(C)c1ccc2nc3ccc(=[N+](C)C)cc-3sc2c1 | – | – | 80.1 | –
7 | Oc1ccc(/C=C/c2cc(O)cc(O)c2)cc1 | – | – | – | inhibition [5]: Active
8 | O=C1/C(=C/c2ccccc2F)CCc2nc3ccccc3cc21 | -0.5 | 8.3 | 2.9 | –
9 | C[n+]1c2c(c(N)c3ccccc31)C(=O)/C(=C\c1cccc([N+](=O)[O-])c1)CC2.[I-] | 94.4 | 1.8 | 32 | –
10 | Nc1c2c(nc3ccccc13)CCC(Cc1ccccc1)C2=O (stereo not given) | -4 | 13.9 | 10 | –
11 | C[n+]1c2c(c(N)c3ccccc31)C(=O)/C(=C/c1cccs1)CC2.[I-] | 99.5 | 1.7 | 95.3 | –
12 | O=C1/C(=C/c2cccc(F)c2)CCc2nc3ccccc3cc21 | 7.2 | 17.2 | 14.7 | –
13 | C[n+]1c2c(c(N)c3ccccc31)C(=O)/C(=C/c1cccc(Cl)c1)CC2.[I-] | 91.9 | 4.1 | 98.3 | –
14 | O=C1/C(=C/c2cccc(Cl)c2)CCc2nc3ccccc3cc21 | 46.2 | 2 | 4.2 | –
15 | C[n+]1c2c(c(N)c3ccccc31)C(=O)/C(=C/c1cccc([N+](=O)[O-])c1)CC2.[I-] | 86.4 | 2.1 | 98.2 | –
16 | C[n+]1c2c(c(N)c3ccccc31)C(=O)/C(=C/c1cccc(F)c1)CC2.[I-] | 98.7 | 3.6 | 86.3 | –
17 | C[n+]1c2c(c(N)c3ccccc31)C(=O)/C(=C\c1ccccc1)CC2.[I-] | 97.6 | 1.8 | 7.2 | –
18 | O=C1/C(=C/c2ccccc2)CCc2nc3ccccc3cc21 | -3.2 | 8.6 | 20.5 | –
19 | C[n+]1c2c(c(N)c3ccccc31)C(=O)/C(=C\c1cccc(F)c1)CC2.[I-] | 89.1 | 2.7 | 23.3 | –
20 | O=C1/C(=C/c2ccccc2Cl)CCc2nc3ccccc3cc21 | 3.5 | 7.1 | 14.9 | –
21 | CN(C)c1ccc2nc3ccc(N(C)C)cc3[s+]c2c1 [METHYLENE BLUE ANHYDROUS] | – | – | – | Kd [9]: 28.2 µM
22 | C[n+]1c2c(c(N)c3ccccc31)C(=O)/C(=C\c1cccc(Cl)c1)CC2.[I-] | 105 | 4.6 | 15.4 | –

The next lines start with results.

Row | inhibition [1] [%] | Papp at 10 h, 100 ug/ml [2] [×10⁻⁶ cm/s] | inhibition (Homo sapiens [3]) [%] | Compound | further results
23 | 2 | 1.3 | -3.8 | Nc1c2c(nc3ccccc13)CC/C(=C\C=C\c1ccccc1)C2=O | –
24 | 8.2 | 3.3 | – | Nc1c2c(nc3ccccc13)CC/C(=C\c1cccc([N+](=O)[O-])c1)C2=O | –
25 | 14.1 | 7.4 | -3.6 | Nc1c2c(nc3ccccc13)CC/C(=C\c1ccccc1Cl)C2=O | –
26 | 91.2 | 3.5 | 79.2 | C[n+]1c2c(c(N)c3ccccc31)C(=O)/C(=C\c1cccc3ccccc13)CC2.[I-] | –
27 | – | 13.3 | – | Nc1c2c(nc3ccccc13)CC/C(=C/c1ccccc1)C2=O | –
28 | 15.2 | 16.2 | 30.7 | Nc1c2c(nc3ccccc13)CC/C(=C\c1ccco1)C2=O | –
29 | – | 15.6 | – | Nc1c2c(nc3ccccc13)CC/C(=C/c1cccc(Cl)c1)C2=O | –
30 | 7.8 | 0.5 | -6.7 | Nc1c2c(nc3ccccc13)CC/C(=C\c1cccc3ccccc13)C2=O | –
31 | 34.2 | 1.1 | -3.1 | Nc1c2c(nc3ccccc13)CC/C(=C\c1cccc(Cl)c1)C2=O | –
32 | 2.4 | 11.2 | -3.3 | Nc1c2c(nc3ccccc13)CC/C(=C\c1ccc([N+](=O)[O-])cc1)C2=O | –
33 | -2 | 10.5 | 43.4 | COc1ccc(/C=C2\CCc3nc4ccccc4c(N)c3C2=O)cc1 | –
34 | 14.5 | 7.2 | 11.9 | Nc1c2c(nc3ccccc13)CC/C(=C\c1cccs1)C2=O | –
35 | 7.9 | 7.5 | 44.3 | COc1cccc(/C=C2\CCc3nc4ccccc4c(N)c3C2=O)c1 | –
36 | 7.7 | 26.4 | 18.7 | Nc1c2c(nc3ccccc13)CC/C(=C\c1ccccc1)C2=O | –
37 | -6.8 | 49.5 | – | Nc1c2c(nc3ccccc13)CC/C(=C/c1cccc3ccccc13)C2=O | –
38 | – | 20.3 | – | Nc1c2c(nc3ccccc13)CC/C(=C/c1cccc(F)c1)C2=O | –
39 | 24.8 | 30.3 | 7.1 | Nc1c2c(nc3ccccc13)CC/C(=C\c1ccc(Cl)cc1)C2=O | –
40 | 37 | 6.9 | 25.3 | Nc1c2c(nc3ccccc13)CC/C(=C\c1ccccc1F)C2=O | –
41 | 86.7 | 4.6 | 102 | C[n+]1c2c(c(N)c3ccccc31)C(=O)/C(=C/c1cccc3ccccc13)CC2.[I-] | inhibition [6]: Active; Kd [7]: 16 µM; inhibition (Homo sapiens [8]): Active; Kd [9]: 33.7 µM; inhibition [5]: Active; Activity (HEK-293T): Non-Toxic; inhibition [10]: 62.6%
42 | – | 10.8 | 5.9 | Nc1c2c(nc3ccccc13)CC/C(=C/c1cccs1)C2=O | –
43 | – | 9.1 | – | Nc1c2c(nc3ccccc13)CC/C(=C/c1cccc([N+](=O)[O-])c1)C2=O | –
44 | 20.3 | 5.3 | 4.9 | Nc1c2c(nc3ccccc13)CC/C(=C\c1cccc(F)c1)C2=O | –
